Among the data in US20080280926A1, “Phosphodiesterase Inhibitors” (priority 2003, published 2008) are melting point values, retold here.

Usually melting point stands for the temperature, or range, at which the solid turns liquid. `CC(C)(C)C(=O)Nc1ncnc2c1nc(-n1cccn1)n2Cc1ccccc1` [Compound No. 1, N-(9-Benzyl-8-pyrazol-1-yl-9H-purin-6-yl)-2,2-dimethylpropionamide] came in with a melting point of 124 to 125 °C.
For the compound `C=CCNC(=O)Nc1ncnc2c1nc(-n1cccn1)n2Cc1ccccc1` [Compound No. 12, 1-Allyl-3-(9-benzyl-8-pyrazol-1-yl-9H-purin-6-yl)-urea], the melting point lay in the range of 189.5 to 199 °C.
